Results on 17 compounds are retold here after patent publication US11078165B2 (priority 2017, dated 2021).

In brackets after ≈: the same amount, converted by molar mass. Where two headings read alike, the source gives them in different places. Bounds are passed on as bounds.

For data set [1], the target named is F-ATP synthase of inverted membrane vesicles (IMV) of M. smegmatis. In words: ATP synthesis assay with inverted membrane vesicles. The following applies: read-out: IC50 [μM], effect on ATP synthesis, IMVs of M. smegmatis.
Chain of F-ATP synthase of inverted membrane vesicles (IMV) of M. smegmatis (A0R203 whole entry): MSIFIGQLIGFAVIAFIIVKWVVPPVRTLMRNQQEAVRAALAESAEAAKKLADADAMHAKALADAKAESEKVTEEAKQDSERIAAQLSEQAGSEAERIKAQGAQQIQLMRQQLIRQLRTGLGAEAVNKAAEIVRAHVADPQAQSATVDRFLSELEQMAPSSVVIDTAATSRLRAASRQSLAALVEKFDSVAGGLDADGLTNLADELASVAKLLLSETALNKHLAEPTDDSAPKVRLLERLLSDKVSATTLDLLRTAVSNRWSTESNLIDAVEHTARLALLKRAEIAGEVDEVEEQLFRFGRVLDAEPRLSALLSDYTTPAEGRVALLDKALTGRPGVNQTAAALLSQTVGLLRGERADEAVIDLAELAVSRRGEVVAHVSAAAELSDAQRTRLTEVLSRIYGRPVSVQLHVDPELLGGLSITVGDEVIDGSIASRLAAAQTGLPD
Chain of F-ATP synthase of inverted membrane vesicles (IMV) of M. smegmatis (A0R1Z9 whole entry, further chain): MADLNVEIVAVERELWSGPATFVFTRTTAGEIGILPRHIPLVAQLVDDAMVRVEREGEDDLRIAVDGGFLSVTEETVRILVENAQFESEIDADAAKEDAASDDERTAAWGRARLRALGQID
Chain of F-ATP synthase of inverted membrane vesicles (IMV) of M. smegmatis (A0R200 whole entry, further chain): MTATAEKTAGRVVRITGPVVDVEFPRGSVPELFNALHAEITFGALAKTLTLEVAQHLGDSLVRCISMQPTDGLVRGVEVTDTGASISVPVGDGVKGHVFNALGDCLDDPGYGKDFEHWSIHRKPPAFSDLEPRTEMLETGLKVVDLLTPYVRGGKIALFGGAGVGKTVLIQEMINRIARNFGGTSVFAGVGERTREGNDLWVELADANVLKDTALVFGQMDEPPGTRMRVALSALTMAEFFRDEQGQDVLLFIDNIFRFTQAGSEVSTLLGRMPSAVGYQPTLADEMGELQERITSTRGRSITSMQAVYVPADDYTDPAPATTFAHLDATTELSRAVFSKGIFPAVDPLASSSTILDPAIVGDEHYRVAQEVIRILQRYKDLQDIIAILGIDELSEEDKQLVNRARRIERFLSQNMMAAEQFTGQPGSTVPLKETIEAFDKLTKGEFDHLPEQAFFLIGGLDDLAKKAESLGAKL
Chain of F-ATP synthase of inverted membrane vesicles (IMV) of M. smegmatis (A0R201 whole entry, further chain): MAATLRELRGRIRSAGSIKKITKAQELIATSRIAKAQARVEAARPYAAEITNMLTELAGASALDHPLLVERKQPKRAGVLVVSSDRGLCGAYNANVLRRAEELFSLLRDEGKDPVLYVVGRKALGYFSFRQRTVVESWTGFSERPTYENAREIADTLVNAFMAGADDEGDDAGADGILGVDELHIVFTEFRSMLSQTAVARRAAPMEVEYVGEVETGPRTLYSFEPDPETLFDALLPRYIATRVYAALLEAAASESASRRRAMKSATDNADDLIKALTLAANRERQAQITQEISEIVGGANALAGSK
Chain of F-ATP synthase of inverted membrane vesicles (IMV) of M. smegmatis (A0R202 whole entry, further chain): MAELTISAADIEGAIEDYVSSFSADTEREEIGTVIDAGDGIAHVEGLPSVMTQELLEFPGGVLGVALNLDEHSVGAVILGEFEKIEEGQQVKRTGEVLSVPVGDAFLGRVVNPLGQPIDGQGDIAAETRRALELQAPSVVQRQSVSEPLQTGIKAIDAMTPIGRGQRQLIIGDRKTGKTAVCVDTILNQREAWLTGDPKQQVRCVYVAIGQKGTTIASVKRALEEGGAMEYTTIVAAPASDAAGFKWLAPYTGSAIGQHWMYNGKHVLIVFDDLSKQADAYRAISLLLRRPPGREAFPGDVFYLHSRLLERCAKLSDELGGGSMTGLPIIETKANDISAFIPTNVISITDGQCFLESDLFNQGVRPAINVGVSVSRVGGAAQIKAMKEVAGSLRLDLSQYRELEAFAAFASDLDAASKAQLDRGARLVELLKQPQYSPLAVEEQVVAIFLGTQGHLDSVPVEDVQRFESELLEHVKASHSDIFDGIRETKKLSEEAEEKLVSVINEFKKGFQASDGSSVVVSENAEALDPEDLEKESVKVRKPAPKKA
Another data set deals with M. smegmatis mc^2 155. The experiment in a line: Minimum inhibitory concentration, broth micro dilution. The data set is classed as cell-based, Mycobacterium smegmatis. The conditions noted are these: Mycolicibacterium smegmatis, MC^2155; M. smegmatis growth, 24 h; read-out: MIC50 [μM], bacterial growth.
A short description of data set [2]: Mouse liver microsome stability. The class given is in vitro ADME. The conditions noted are these: for half-life: mouse, liver microsomes.
For data set [3], the system named is extracellular oxygen consumption. The experiment in a line: Oxygen consumption rate. The class given is cell-based.
The next data set deals with IMVs of M. phlei. The conditions noted are these: reported [1], read-out: IC50, ATP synthesis; cited from earlier work.
The next data set deals with M. bovis BCG. In words: microbe, parasite or virus in culture. The data set is classed as cell-based, Mycobacterium bovis. The conditions noted are these: for ATP synthesis (luminescence): FIG. 3C; for IC50: Mycobacterium tuberculosis variant bovis BCG, BCG, FIG. 3D.

Broadly, the melting point is the temperature of the solid-liquid transition. Usually IC50 stands for the midpoint of a concentration-inhibition curve. One may read the MIC50 as an inhibitory concentration at the 50% level, which refers to growth in some studies and to a panel of isolates in others. With `CCNc1cc(C)nc(Nc2ccc(NC(=O)c3ccc(C)cc3)cc2)n1` [4Me U Et, N-(4-((4-(ethylamino)-6-methylpyrimidin-2-yl)amino)phenyl)-4-methylbenzamide], the melting point lay within 297 to 300 °C. In addition, in data set [1], the 50% inhibitory concentration (IC50) was determined as 0.39 ± 0.02 µM. In addition, the MIC50 in the data set on M. smegmatis mc^2 155 worked out at 31.8 ± 7.8 µM (≈ 11.5 µg/mL).
In the case of `CCNc1cc(C)nc(Nc2ccc(NC(=O)c3ccccc3)cc2)n1` [H U Et, N-(4-((4-(ethylamino)-6-methylpyrimidin-2-yl)amino)phenyl)benzamide], the melting point was 225 to 226 °C. In addition, the IC50 in data set [1] was found to be 1.65 ± 0.16 µM. Moreover, the MIC50 in the data set on M. smegmatis mc^2 155 came out at 26.9 ± 1.39 µM (≈ 9.36 µg/mL).
The matching figures for `CCNc1cc(C)nc(Nc2ccc(NC(=O)c3cccc(F)c3)cc2)n1` [F U Et, N-(4-((4-(ethylamino)-6-methylpyrimidin-2-yl)amino)phenyl)-3-fluorobenzamide]: 259 to 263 °C, 0.26 ± 0.05 µM and 18.7 ± 1.25 µM (≈ 6.84 µg/mL).
Regarding `CCNc1cc(C)nc(Nc2ccc(NC(=O)c3cccc(O)c3)cc2)n1` [3OH U Et, N-(4-((4-(ethylamino)-6-methylpyrimidin-2-yl)amino)phenyl)-3-hydroxybenzamide], the melting point is 283 to 285 °C. Besides, the IC50 in data set [1] stood at 1.16 ± 0.09 µM. The MIC50 in the data set on M. smegmatis mc^2 155 turned out to be 79.6 ± 9.13 µM (≈ 28.9 µg/mL).
For `Cc1cc(NCCO)nc(Nc2ccc(NC(=O)c3cccc(Br)c3)cc2)n1` [Br EtOH] the same measures were 237 to 241 °C, 0.42 ± 0.03 µM and 19 ± 1.5 µM (≈ 8.41 µg/mL).
For `CCNc1nc(Nc2ccc(NC(=O)c3cccc(Br)c3)cc2)ncc1C` [Br T Et, 3-bromo-N-(4-((4-(ethylamino)-5-methylpyrimidin-2-yl)amino)phenyl)benzamide], the melting point is over 230 °C. Also, in data set [1], the IC50 was found to be 0.62 ± 0.08 µM. Further, the MIC50 with M. smegmatis mc^2 155 was 12.3 ± 0.73 µM (≈ 5.25 µg/mL).
`CCNc1nc(C)cc(Nc2ccc(NC(=O)c3cccc(Br)c3)cc2)n1` [Br U Et iso (Cpd 6 iso), 3-bromo-N-(4-((2-(ethylamino)-6-methylpyrimidin-4-yl)amino)phenyl)benzamide] had a melting point of 260 to 264 °C. Moreover, the IC50 in data set [1] was determined as 0.38 ± 0.03 µM. The MIC50 in the data set with M. smegmatis mc^2 155 is 20.8 ± 1.9 µM (≈ 8.88 µg/mL).
What is called microsomal CLint is a measure of how fast metabolising enzymes remove a compound, apart from limits set by blood flow. Read a low microsomal CLint as slow turnover. Consider `CCNc1cc(C)nc(Nc2ccc(NC(=O)c3cccc(Br)c3)cc2)n1` [Cpd 6, 3-bromo-N-(4-((4-(ethylamino)-6-methylpyrimidin-2-yl)amino)phenyl)benzamide], for which the microsomal CLint in data set [2] (mouse liver microsomes) came out at 14.6 µL/min/mg. In addition, the half-life was 47.5 min in data set [2] (read-out: T½) and 68 min in data set [2] (without NADPH, read-out: T½ w/o NADPH).
For the compound `COc1nc2ccc(Br)cc2cc1[C@@H](c1ccccc1)[C@@](O)(CCN(C)C)c1cccc2ccccc12` [BDQ, 1-(6-bromo-2-methoxy-quinolin-3-yl)-4-dimethylamino-2-naphthalen-1-yl-1-phenyl-butan-2-ol], the “concentration inhibiting extracellular oxygen consumption” value in data set [3] (BDQ alone) is “about 500 nM”. Besides, the “concentration needed for similar inhibition of oxygen consumption” value in data set [3] (BDQ in combination with 40 μM of cpd 6) stood at 50 nm. For the same compound, the IC50 in the data set on IMVs of M. phlei is 20 to 25 nM; in the data set on M. bovis BCG (read-out: IC50 value of BDQ, BDQ alone) it was 42 nM; in the data set with M. bovis BCG (read-out: IC50 value of BDQ, in combination with cpd 6), 2.36 nM. The “ATP synthesis (luminescence)” value with M. bovis BCG (12.5 nM BDQ in the presence of 37.5 μM of cpd 6) was 6.5×10^3 RLU; in the data set with M. bovis BCG (BDQ alone at 200 nM, drug-free 3.7×10^4 RLU), 8×10^3 RLU.
The compound `CCNc1cc(C)nc(Nc2ccc(NC(=O)c3ccc(OC)cc3)cc2)n1` [4OMe U Et, N-(4-((4-(ethylamino)-6-methylpyrimidin-2-yl)amino)phenyl)-4-methoxybenzamide] yielded a melting point of 285 to 288 °C. In addition, the IC50 in data set [1] is 0.69 ± 0.06 µM. Further, in the data set on M. smegmatis mc^2 155, the MIC50 was found to be 17.3 ± 2.26 µM (≈ 6.52 µg/mL). Also, the “whole cell ATP synthesis inhibition versus drug free control” value in the data set on M. bovis BCG (analog in combination with BDQ, FIG. 6A, 6B) is given as “significant increase in the inhibition”.
Compound `CCNc1nc(Nc2ccc(NC(=O)c3ccccc3)cc2)ncc1C` [H T Et, N-(4-((4-(ethylamino)-5-methylpyrimidin-2-yl)amino)phenyl)benzamide] had a melting point of over 230 °C. For the same compound, the IC50 in data set [1] amounted to 0.9 ± 0.06 µM. Further, in the data set with M. smegmatis mc^2 155, the MIC50 turned out to be 39 ± 1.91 µM (≈ 13.5 µg/mL).
`CCOC(=O)CNc1cc(C)nc(Nc2ccc(NC(=O)c3cccc(Br)c3)cc2)n1` [Br Gly, ethyl (2-((4-(3-bromobenzamido)phenyl)amino)-6-methylpyrimidin-4-yl)glycinate] showed a melting point of over 230 °C. In data set [1], the IC50 was found to be 2.01 ± 0.16 µM. Further, in the data set on M. smegmatis mc^2 155, the MIC50 was 15.5 ± 1.52 µM (≈ 7.53 µg/mL).
Consider `CCc1nc2ccc(Cl)cn2c1C(=O)NCc1ccc(N2CCC(c3ccc(OC(F)(F)F)cc3)CC2)cc1` [Q203, 6-chloro-2-ethyl-N-[[4-[4-[4-(trifluoromethoxy)phenyl]piperidin-1-yl]phenyl]methyl]imidazo[1,2-a]pyridine-3-carboxamide], for which, in data set [3] (Q203 in combination with 40 μM of cpd 6), the “concentration for complete inhibition of oxygen consumption” value is reported as 100 nM. Also, the “effect of Q203 in the presence of cpd 6” value with M. bovis BCG (ATP synthesis, FIG. 3E) is “additive effect”.
Consider `CNc1cc(C)nc(Nc2ccc(NC(=O)c3cccc(Br)c3)cc2)n1` [Br Me, 3-bromo-N-(4-((4-methyl-6-(methylamino)pyrimidin-2-yl)amino)phenyl)benzamide], for which the melting point lay in the range of 301 to 303 °C. For the same compound, the IC50 in data set [1] was 0.39 ± 0.06 µM. Moreover, the MIC50 with M. smegmatis mc^2 155 is 12.4 ± 0.56 µM (≈ 5.11 µg/mL).
Compound `Cc1cc(NC(C)C)nc(Nc2ccc(NC(=O)c3cccc(Br)c3)cc2)n1` [Br iso, 3-bromo-N-(4-((4-(isopropylamino)-6-methylpyrimidin-2-yl)amino)phenyl)benzamide] gave a melting point of 183 to 185 °C. The IC50 in data set [1] turned out to be 2.69 ± 0.21 µM. The MIC50 with M. smegmatis mc^2 155 came to 50.1 ± 4.5 µM (≈ 22.1 µg/mL).
Turning to `CCNc1nc(Nc2ccc(NC(=O)c3cccc(F)c3)cc2)ncc1C` [F T Et, N-(4-((4-(ethylamino)-5-methylpyrimidin-2-yl)amino)phenyl)-3-fluorobenzamide], the IC50 in data set [1] worked out at 0.92 ± 0.04 µM. For the same compound, the MIC50 in the data set with M. smegmatis mc^2 155 is 43.5 ± 3.57 µM (≈ 15.9 µg/mL).
Regarding `CCNc1ccnc(Nc2ccc(NC(=O)c3cccc(Br)c3)cc2)n1` [Br desMe, 3-bromo-N-(4-((4-(ethylamino)pyrimidin-2-yl)amino)phenyl)benzamide], the melting point was in the range of 229 to 231 °C. The IC50 in data set [1] was found to be 1.03 ± 0.25 µM. For the same compound, the MIC50 with M. smegmatis mc^2 155 came out at 16.8 ± 2.6 µM (≈ 6.93 µg/mL).
